Measurements taken from patent US20260364186A1, “Chemical Conjugates, Compositions, and Methods of Preparation and Use Thereof” (Transfection Holdings Limited, priority 2022, published 2026).
Entries after “also recorded” stand apart in the source; their conditions may differ.

What was measured:
Assay type in all cases: cell-based, human
[1] = tested on: NZM11 (BRAF V600E) melanoma cells; experiment: Time course of uptake by FACS (Example 5); conditions: 200 nM; for uptake / intensities, in words: NZM11, time course
Description: FIG. 5A: Time course of uptake for 124, 125, 131, 132 conjugate compounds. Tests were performed using 200 nM each conjugate and 5, 30, or 60 minute incubation with melanoma cell line NZM11 (BRAF V600E mutant metastatic melanoma). Mean fluorescent intensities (MFI), n=300 mean±SD. The cells were sorted by FACS.
FIG. 5B: Time course of uptake for 124 and 3-azido BODIPY FL. Tests were performed using 200 nM each compound and 1 or 3 hour incubation with melanoma cell line NZM11 (BRAF V600E mutant metastatic melanoma). Mean fluorescent intensities (MFI). n=2000-3000 mean±SD. The cells were sorted by FACS.
Materials and methods: NZM11 cells were suspended at […] dispensed into 96 well plates and left to settle for 48 hours. 10 μL of 10 mM stock solutions in DMSO from the conjugates coupled to BODIPY were diluted with HBSS to afford 400 nM solution. Then, 400 nM compounds and DMSO solutions were diluted 1:1 with MEMα media to afford 200 nM solutions. After 48 hours the media was removed from the 96 well plates and 200 μL of 200 nM conjugates solutions dispensed to each well (in duplicate) and incubated for 5 minutes, 30 minutes and 60 minutes at 37 °C (for the first test) or 60 minutes and 3 hours (for the second test). After indicated incubation time, the media was removed and cells washed with PBS. 100 μL of TrypLE trypsin (ThermoFisher Scientific) were added to each well and incubated for 6.5 minutes at 37 °C after which, 100 μL of MEMα media were added and samples were sorted through FACS biosort. FACS results output represented the mean of the fluorescence intensities (in arbitrary units) measured for cells sorted in every sample. Uptake rate was calculated by the equation: Uptake rate=(MFI2−MFI1)/(T2−T1)
whereby: MFI=mean fluorescent intensities; T=time (at which time the sample was taken); Uptake rate units: fluorescence intensities units per minute.

[2] = tested on: NZM40 (NRAS Q16H) melanoma cells; experiment: FACS uptake of BODIPY FL conjugates, 200 nM, 5 min (Example 2)
Description: FIG. 2. Conjugate compounds coupled to BODIPY FL were tested for uptake using 200 nM each conjugate and 5 minute incubation with melanoma cell line NZM11 (BRAF V600E mutant metastatic melanoma), melanoma cell line NZM40 (NRAS Q16H mutant metastatic melanoma) and melanoma cell line NZM9 (BRAF and NRAS wildtype metastatic melanoma). Mean fluorescent intensities (MFI). 2,000 cells (NZM11), 1,000 cells (NZM40) and 500-1,000 cells (NZM9). Cells were sorted by FACS. Bars represent mean±SD. Results were from a single experiment done in triplicate.
NZM40 is an adherent cell line which was originally derived from a metastatic melanoma from a patient, in 2004. This human metastatic melanoma is identified with code CBA-1381 from Cell bank Australia. […] Ras is a superfamily of proteins implicated in cell growth, survival and differentiation. NRAS (neuroblastoma rat sarcoma) was the first oncogene recognized in melanoma and mutations in NRAS account for 20% of all melanomas. NRAS mutations primarily occur at position 61 and involve amino acid change from glutamine (Q) to arginine (R), lysine (K), leucine (L) or histidine (H). These mutations block NRAS into a GTP-bound state damaging its GTPase activity (FIG. 1). Patients are usually older (>55 years) with previous UV exposure. See Garcia-Alverez et al., 2021.
For screening, NZM11, NZM40 and NZM9 cells were suspended at […] dispensed into 96 well plates and left to settle for 48 hours. Then, 10 μL of 10 mM stock solutions in DMSO for the conjugates were diluted with HBSS to afford 400 nM solution. Next, 400 nM compounds and DMSO solutions were diluted 1:1 with MEMα media to afford 200 nM solutions. After 48 hours the media was removed from the 96 well plates and 200 μL of 200 nM conjugates solutions dispensed to each well (in triplicate) and incubated for 5 minutes at 37 °C. After 5 minutes, the media was removed and cells washed with PBS. Then, 100 μL of TrypLE trypsin (ThermoFisher Scientific) were added to each well and incubated for 5 minutes at 37 °C after which, 100 μL of MEMα media were added and samples were sorted through FACS biosort. The FACS results output were represented as the mean of the fluorescence intensities (in arbitrary units) measured for cells sorted in every sample.

Jurkat cells = experiment: FACS uptake of BODIPY FL conjugates in Jurkat cells (Example 3); conditions: 200 nM
Description: FIG. 3B: Conjugate compounds coupled to BODIPY FL were tested for uptake using 200 nM each conjugate and 5 minute incubation with immortalized T lymphocyte cell line, Jurkat cells. Mean fluorescent intensities (MFI). 1,000 cells sorted by FACS. Bars represent mean±SD. Results represent a single experiment done in duplicate.
Materials and methods: Jurkat cells have been previously shown to be defective in the expression of two lipid phosphatases, PTEN (phosphatase and tensin homologue) and SHIP (SH2-domain-containing inositol polyphosphate 5′ phosphatase). The biological implications of SHIP deficiency in T cells remain under evaluation, but the loss of PTEN leads to activation of the phosphatidylinositol 3-kinase (PI3K)-signalling pathway. See Abraham and Weiss, 2004. This activation of PI3K protein is also on NZM40 melanoma cell line, and represents a key mutation for its sustained proliferation. See Silva et al., 2017. For these experiments, Jurkat cells were diluted on RPMI media (supplemented with 10% FBS+1% penicillin-streptomycin) to afford 400 cells/μL. 2 μL of 100 μM stock solutions in DMSO from 138 and pantothenic acid/pantothenic acid derivatives coupled to BODIPY were diluted with 998 μL of RPMI media (supplemented with 10% FBS+1% penicillin-streptomycin) to afford 200 nM solution. 100,000 cells were dispensed to Eppendorf tubes, centrifuged for 1.5 min at 5000 rcf and the supernatant was removed. The cells then were incubated with 500 μL of solutions at 200 nM for 4.5 min and 37 °C. After the incubation time, cells were centrifuged for 1.5 minutes at 5000 rcf. Supernatant was removed and cell pellet re-suspended in 200 μL fresh RPMI media, transferred to 96 well-plate and run on FACS machine, approximately 1,000 cells analysed.

Compound	lower intensities at 3 hour than 60 minute incubation ([1]; NZM11) [%]	time after which uptake presents saturation ([1]; NZM11) [min]	time at which highest intensities were reached ([1]; NZM11) [min]	uptake / intensities, in words [1]	uptake rate ([1]; after five minutes) [units per minute]	uptake rate ([1]; at 30 minutes) [units per minute]	uptake rate ([1]; at 60 minutes) [units per minute]	higher fluorescence intensities compared to enantiomer 126 [2] [times]	uptake (fluorescence intensities) [2]	uptake / targeting (Jurkat cells)	intensities compared to 125 and 127 (Jurkat cells; vs 125 and 127)	times lower uptake rate, as compared to 124 ([1]; NZM11) [times]
CC1=CC(C)=[N+]2C1=Cc1ccc(CCCn3cc(CCNC(=O)/C=C/NC(=O)[C@H](O)C(C)(C)CO)nn3)n1[B-]2(F)F [Compound 124]	4	60	60	outstanding uptake; also recorded: rapid at the first minutes of incubation	45	23	1	13	highest intensities; also recorded: best targeting activity	highest uptake	two times higher	
CC1=CC(C)=[N+]2C1=Cc1ccc(CCCn3cc(CCNC(=O)/C=C/NC(=O)[C@@H]4OC(C)(C)OCC4(C)C)nn3)n1[B-]2(F)F [Compound 125, (R,E)-N-((((3-[4,4-difluoro-5,7-dimethyl-4-bora-3a,4a-diaza-s-indacene-3-yl]propyl)-1H-1,2,3-triazol-4-yl)eth-ylamino)-3-oxoprop-1-enyl)-2,2,5,5-tetramethyl-1,3-dioxane-4-carboxamide]			60						selective uptake; also recorded: significant uptake	showed targeting		7
CC1=CC(C)=[N+]2C1=Cc1ccc(CCCn3cc(CCNC(=O)/C=C\NC(=O)[C@H]4OC(C)(C)OCC4(C)C)nn3)n1[B-]2(F)F [Compound 131, (Z)—N-((((3-[4,4-Difluoro-5,7-dimethyl-4-bora-3a,4a-diaza-s-indacene-3-yl]propyl)-1H-1,2,3-triazol-4-yl)ethylamino)-3-oxoprop-1-enyl)-2,2,5,5-tetramethyl-1,3-dioxane-4-carboxamide]				non-significant intensities					showed selectivity	showed targeting		
